Source: patent publication US20250353853A1, “FLAVIVIRUS INHIBITORS” (IRBM S.P.A., priority 2022, published 2025)
pEC50, pIC50: −log10 of the molar value. Where two headings read alike, the source gives them in different places.

Columns and labels:
[1] = target: West Nile Virus (WNV) NS2B-NS3 protease (West Nile virus (WNV), UniProt P06935); assay: WNV Protease Inhibition Assay; type: biochemical
Excerpt: WNV Protease Inhibition Assay

[2] = system: ZIKV replicon in Vero cells; assay: ZIKV Replication Inhibition Assay (replicon, NanoLuc); details: Zika virus, Vero, 72 h, read-out: Zika Replicon EC50
[3] = 2 nM protease, 10 μM pERTKR-AMC substrate, read-out: WNV Protease IC50

Chain of West Nile Virus (WNV) NS2B-NS3 protease (P06935 1502-1679 limits assumed): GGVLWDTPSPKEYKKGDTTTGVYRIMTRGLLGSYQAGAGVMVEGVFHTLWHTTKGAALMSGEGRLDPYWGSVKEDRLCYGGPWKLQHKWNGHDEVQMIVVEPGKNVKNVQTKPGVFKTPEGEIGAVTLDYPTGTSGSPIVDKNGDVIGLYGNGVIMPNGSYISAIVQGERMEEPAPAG
Chain of West Nile Virus (WNV) NS2B-NS3 protease (P06935 1371-1501 partner limits assumed): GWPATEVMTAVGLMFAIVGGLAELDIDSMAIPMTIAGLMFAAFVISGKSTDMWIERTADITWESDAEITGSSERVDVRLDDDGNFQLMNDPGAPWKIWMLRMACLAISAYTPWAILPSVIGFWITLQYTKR

Row | SMILES | pIC50 [1, 3] | pEC50 [2] | pIC50 [1]
1 | COc1ncc(-c2ccc(C[n+]3cc([N-]C(=O)Nc4cncc(C(F)(F)F)c4)on3)cc2)cn1 [Example 58, (3-(4-(2-methoxypyrimidin-5-yl)benzyl)-1,2,3-oxadiazol-3-ium-5-yl)((5-(trifluoromethyl)pyridin-3-yl)carbamoyl)amide] | > 7.00 | 6.00 to 7.00 | –
2 | O=C([N-]c1c[n+]([C@@H]2CCC[C@H]2c2ccccc2)no1)Nc1cccc(C(F)(F)F)c1 [Example 59, (3-((1R,2S)-2-phenylcyclopentyl)-1,2,3-oxadiazol-3-ium-5-yl)((3-(trifluoromethyl)phenyl)carbamoyl)amide] | – | 6.00 to 7.00 | 4.70 to 6.00
3 | Cc1ncncc1-c1ccc(C[n+]2cc([N-]C(=O)Nc3cccc(C(F)(F)F)c3)on2)cc1 [Example 60, (3-(4-(4-methylpyrimidin-5-yl)benzyl)-1,2,3-oxadiazol-3-ium-5-yl)((3-(trifluoromethyl)phenyl)carbamoyl)amide] | > 7.00 | > 7.00 | –
4 | O=C([N-]c1c[n+](Cc2ccc(-c3ccnnc3)cc2)no1)Nc1cccc(C(F)(F)F)c1 [Example 61, (3-(4-(pyridazin-4-yl)benzyl)-1,2,3-oxadiazol-3-ium-5-yl)((3-(trifluoromethyl)phenyl)carbamoyl)amide] | > 7.00 | > 7.00 | –
5 | COc1ncncc1-c1ccc(C[n+]2cc([N-]C(=O)Nc3cccc(C(F)(F)F)c3)on2)cc1 [Example 62, (3-(4-(4-methoxypyrimidin-5-yl)benzyl)-1,2,3-oxadiazol-3-ium-5-yl)((3-(trifluoromethyl)phenyl)carbamoyl)amide] | > 7.00 | 6.00 to 7.00 | –
6 | COc1cc(-c2ccc(C[n+]3cc([N-]C(=O)Nc4cccc(C(F)(F)F)c4)on3)cc2)ccn1 [Example 63, (3-(4-(2-methoxypyridin-4-yl)benzyl)-1,2,3-oxadiazol-3-ium-5-yl)((3-(trifluoromethyl)phenyl)carbamoyl)amide] | – | 6.00 to 7.00 | 6.00 to 7.00
7 | O=C([N-]c1c[n+](Cc2ccc(-c3ccnc(O)c3)cc2)no1)Nc1cccc(C(F)(F)F)c1 [Example 64, (3-(4-(2-hydroxypyridin-4-yl)benzyl)-1,2,3-oxadiazol-3-ium-5-yl)((3-(trifluoromethyl)phenyl)carbamoyl)amide] | > 7.00 | 6.00 to 7.00 | –
8 | O=C([N-]c1c[n+](Cc2ccc(-c3ccncc3)cc2)no1)Nc1cncc(C(F)(F)F)c1 [Example 67, (3-(4-(pyridin-4-yl)benzyl)-1,2,3-oxadiazol-3-ium-5-yl)((5-(trifluoromethyl)pyridin-3-yl)carbamoyl)amide] | – | 6.00 to 7.00 | 6.00 to 7.00
9 | C[C@H](c1ccc(Br)cc1)[n+]1cc([N-]C(=O)Nc2cccc(C(F)(F)F)c2)on1 [Example 68, (R)-(3-(1-(4-bromophenyl)ethyl)-1,2,3-oxadiazol-3-ium-5-yl)((3-(trifluoromethyl)phenyl)carbamoyl)amide] | – | 4.70 to 6.00 | 4.70 to 6.00
10 | C[C@@H](c1ccc(Br)cc1)[n+]1cc([N-]C(=O)Nc2cccc(C(F)(F)F)c2)on1 [Example 69, (S)-(3-(1-(4-bromophenyl)ethyl)-1,2,3-oxadiazol-3-ium-5-yl)((3-(trifluoromethyl)phenyl)carbamoyl)amide] | – | 6.00 to 7.00 | 4.70 to 6.00
11 | C[C@H](c1ccc(-c2cncnc2)cc1)[n+]1cc([N-]C(=O)Nc2cccc(C(F)(F)F)c2)on1 [Example 72, (R)-(3-(1-(4-(pyrimidin-5-yl)phenyl)ethyl)-1,2,3-oxadiazol-3-ium-5-yl)((3-(trifluoromethyl)phenyl)carbamoyl)amide] | – | 6.00 to 7.00 | 6.00 to 7.00
12 | C[C@H](c1ccc(Br)cc1)[n+]1cc([N-]C(=O)Nc2cncc(C(F)(F)F)c2)on1 [Example 73, (R)-(3-(1-(4-bromophenyl)ethyl)-1,2,3-oxadiazol-3-ium-5-yl)((5-(trifluoromethyl)pyridin-3-yl)carbamoyl)amide] | – | 4.70 to 6.00 | 4.70 to 6.00
13 | C[C@@H](c1ccc(-c2cncnc2)cc1)[n+]1cc([N-]C(=O)Nc2cccc(C(F)(F)F)c2)on1 [Example 74, (S)-(3-(1-(4-(pyrimidin-5-yl)phenyl)ethyl)-1,2,3-oxadiazol-3-ium-5-yl)((3-(trifluoromethyl)phenyl)carbamoyl)amide] | > 7.00 | 6.00 to 7.00 | –
14 | C[C@H](c1ccc(-c2cncnc2)cc1)[n+]1cc([N-]C(=O)Nc2cncc(C(F)(F)F)c2)on1 [Example 75, (R)-(3-(1-(4-(pyrimidin-5-yl)phenyl)ethyl)-1,2,3-oxadiazol-3-ium-5-yl)((5-(trifluoromethyl)pyridin-3-yl)carbamoyl)amide] | > 7.00 | 6.00 to 7.00 | –
15 | O=C([N-]c1c[n+](Cc2ccc(-c3cncnc3)cn2)no1)Nc1cncc(C(F)(F)F)c1 [Example 125, (3-((5-(pyrimidin-5-yl)pyridin-2-yl)methyl)-1,2,3-oxadiazol-3-ium-5-yl)((5-(trifluoromethyl)pyridin-3-yl)carbamoyl)amide] | – | 6.00 to 7.00 | 6.00 to 7.00
16 | Cc1noc(C)c1-c1ccc(C[n+]2cc([N-]C(=O)Nc3cncc(C(F)(F)F)c3)on2)nc1 [Example 126, (3-((5-(3,5-dimethylisoxazol-4-yl)pyridin-2-yl)methyl)-1,2,3-oxadiazol-3-ium-5-yl)((5-(trifluoromethyl)pyridin-3-yl)carbamoyl)amide] | > 7.00 | > 7.00 | –
17 | Cc1noc(C)c1-c1ccc(C[n+]2cc([N-]C(=O)Nc3cncc(C(F)(F)F)c3)on2)cc1 [Example 127, (3-(4-(3,5-dimethylisoxazol-4-yl)benzyl)-1,2,3-oxadiazol-3-ium-5-yl)((5-(trifluoromethyl)pyridin-3-yl)carbamoyl)amide] | – | 6.00 to 7.00 | 6.00 to 7.00
18 | Cc1cnncc1-c1ccc(C[n+]2cc([N-]C(=O)Nc3cncc(C(F)(F)F)c3)on2)nc1 [Example 128, (3-((5-(5-methylpyridazin-4-yl)pyridin-2-yl)methyl)-1,2,3-oxadiazol-3-ium-5-yl)((5-(trifluoromethyl)pyridin-3-yl)carbamoyl)amide] | – | 4.70 to 6.00 | 6.00 to 7.00
19 | Cc1cnncc1-c1ccc(C[n+]2cc([N-]C(=O)Nc3cccc(C(F)(F)F)c3)on2)nc1 [Example 129, (3-((5-(5-methylpyridazin-4-yl)pyridin-2-yl)methyl)-1,2,3-oxadiazol-3-ium-5-yl)((3-(trifluoromethyl)phenyl)carbamoyl)amide] | > 7.00 | 6.00 to 7.00 | –
20 | Cc1ncnc(C)c1-c1ccc(C[n+]2cc([N-]C(=O)Nc3cccc(C(F)(F)F)c3)on2)nc1 [Example 130, (3-((5-(4,6-dimethylpyrimidin-5-yl)pyridin-2-yl)methyl)-1,2,3-oxadiazol-3-ium-5-yl)((3-(trifluoromethyl)phenyl)carbamoyl)amide] | > 7.00 | > 7.00 | –
21 | O=C([N-]c1c[n+](Cc2ccc(-c3cncnc3C(F)(F)F)cn2)no1)Nc1cccc(C(F)(F)F)c1 [Example 131, ((3-(trifluoromethyl)phenyl)carbamoyl)(3-((5-(4-(trifluoromethyl)pyrimidin-5-yl)pyridin-2-yl)methyl)-1,2,3-oxadiazol-3-ium-5-yl)amide] | > 7.00 | > 7.00 | –
22 | Cc1ncnc(C)c1-c1ccc(C[n+]2cc([N-]C(=O)Nc3cncc(C(F)(F)F)c3)on2)nc1 [Example 132, (3-((5-(4,6-dimethylpyrimidin-5-yl)pyridin-2-yl)methyl)-1,2,3-oxadiazol-3-ium-5-yl)((5-(trifluoromethyl)pyridin-3-yl)carbamoyl)amide] | – | 6.00 to 7.00 | 6.00 to 7.00
23 | COc1ncc(-c2ccc(C[n+]3cc([N-]C(=O)Nc4cncc(C(F)(F)F)c4)on3)nc2)c(C)n1 [Example 133, (3-((5-(2-methoxy-4-methylpyrimidin-5-yl)pyridin-2-yl)methyl)-1,2,3-oxadiazol-3-ium-5-yl)((5-(trifluoromethyl)pyridin-3-yl)carbamoyl)amide] | – | 6.00 to 7.00 | 6.00 to 7.00
24 | COc1ncc(-c2ccc(C[n+]3cc([N-]C(=O)Nc4cccc(C(F)(F)F)c4)on3)nc2)c(C)n1 [Example 134, (3-((5-(2-methoxy-4-methylpyrimidin-5-yl)pyridin-2-yl)methyl)-1,2,3-oxadiazol-3-ium-5-yl)((3-(trifluoromethyl)phenyl)carbamoyl)amide] | > 7.00 | > 7.00 | –
25 | COc1ncnc(C)c1-c1ccc(C[n+]2cc([N-]C(=O)Nc3cccc(C(F)(F)F)c3)on2)nc1 [Example 135, (3-((5-(4-methoxy-6-methylpyrimidin-5-yl)pyridin-2-yl)methyl)-1,2,3-oxadiazol-3-ium-5-yl)((3-(trifluoromethyl)phenyl)carbamoyl)amide] | > 7.00 | > 7.00 | –
26 | COc1ncnc(C)c1-c1ccc(C[n+]2cc([N-]C(=O)Nc3cncc(C(F)(F)F)c3)on2)nc1 [Example 136, (3-((5-(4-methoxy-6-methylpyrimidin-5-yl)pyridin-2-yl)methyl)-1,2,3-oxadiazol-3-ium-5-yl)((5-(trifluoromethyl)pyridin-3-yl)carbamoyl)amide] | – | 6.00 to 7.00 | 6.00 to 7.00
27 | O=C([N-]c1c[n+](Cc2ccc(-c3cncnc3C(F)(F)F)cn2)no1)Nc1cncc(C(F)(F)F)c1 [Example 137, ((5-(trifluoromethyl)pyridin-3-yl)carbamoyl)(3-((5-(4-(trifluoromethyl)pyrimidin-5-yl)pyridin-2-yl)methyl)-1,2,3-oxadiazol-3-ium-5-yl)amide] | > 7.00 | > 7.00 | –
28 | Cc1ncccc1-c1ccc(C[n+]2cc([N-]C(=O)Nc3cccc(C(F)(F)F)c3)on2)nc1 [Example 138, (3-((2′-methyl-[3,3′-bipyridin]-6-yl)methyl)-1,2,3-oxadiazol-3-ium-5-yl)((3-(trifluoromethyl)phenyl)carbamoyl)amide] | > 7.00 | > 7.00 | –
29 | Cc1ccncc1-c1ccc(C[n+]2cc([N-]C(=O)Nc3cccc(C(F)(F)F)c3)on2)nc1 [Example 139, (3-((4′-methyl-[3,3′-bipyridin]-6-yl)methyl)-1,2,3-oxadiazol-3-ium-5-yl)((3-(trifluoromethyl)phenyl)carbamoyl)amide] | > 7.00 | > 7.00 | –
